In patent US4714699A, “2-tolylmorpholine derivatives and pharmaceutical compositions” (Societe Anonyme Dite: Laboratoire L. Lafon, priority 1983, dated 1987):
“Also recorded” adds a separate entry of the source.

Legend:
[1] = pretoxicity (LD-O, maximum non-lethal dose); type: in vivo, male mice
Description: (§1) In the following tests, CRL 40 875, in solution in distilled water, was administered intraperitoneally in a volume of 20 ml/kg to male mice and 5 ml/kg to male rats.
(§2) In the following tests, CRL 40 897, in solution in distilled water (pH 4), was administered intraperitoneally in a volume of 20 ml/kg to male mice and in a volume of 5 ml/kg to male rats, the procedures being those given above for CRL 40 875.
(§3) In the tests undertaken, CRL 40 912, in solution in distilled water (pH 4.5), was administered intraperitoneally in a volume of 20 ml/kg to male mice and in a volume of 5 ml/kg to male rats, the procedures being those given above for CRL 40 875.
(§4) The toxicological and neuropsychopharmacological studies undertaken in accordance with the procedures described above for CRL 40 875 enabled the following observations to be made: […]

[2] = overall behavior and reactivities in mice; type: in vivo, male mice; conditions: mice
Description: as §1
Groups of three mice are observed before and then 15 minutes, 30 minutes, 1 hour, 2 hours, 3 hours and 24 hours after the administration of CRL 40 875.
as §2, §4

[3] = interaction with apomorphine in mice; type: in vivo, male mice; conditions: mice
Description: as §1
Groups of 6 mice receive CRL 40 875 0.5 hour before the subcutaneous injection of 1 or 16 mg/kg of apomorphine.
as §2, §3

[4] = interaction with apomorphine in rats; type: in vivo, male rats; conditions: i.p., 0.5 mg/kg apomorphine
Description: as §1
CRL 40 875 is administered to groups of 6 rats 0.5 hour before the subcutaneous injection of 0.5 mg/kg of apomorphine.
as §2, §3

[5] = interaction with amphetamine; type: in vivo, male rats; conditions: i.p.; 2 mg/kg amphetamine; rats
Description: as §1, §2, §3

[6] = interaction with reserpine; type: in vivo, male mice; conditions: i.p., mice
Description: as §1
Four hours after the intraperitoneal injection of 2.5 mg/kg of reserpine, groups of 6 mice receive CRL 40 875. The effects on the temperature and ptosis are observed.
as §2, §3

[7] = interaction with oxotremorine; type: in vivo, male mice; conditions: mice
Description: as §1
CRL 40 875 is administered to groups of 6 mice half an hour before the intraperitoneal injection of 0.5 mg/kg of oxotremorine.
as §2, §3

[8] = four plate test; type: in vivo, male mice; conditions: i.p., mice
Description: as §1
(§5) The test is performed on groups of 10 mice half an hour after the administration of CRL 40 875.
as §2

[9] = action on the spontaneous motility; type: in vivo, male mice; conditions: mice
Description: as §1
Half an hour after they have received CRL 40 875, the mice (6 per dose, 12 control animals) are placed in an actimeter, where their motility is recorded for 30 minutes.
as §2

[10] = action on the intergroup aggressiveness; type: in vivo, male mice; conditions: i.p., mice
Description: as §1
After they have stayed for 3 weeks in the two halves of a cage divided by an opaque partition, groups of 3 mice receive CRL 40 875. Half an hour later, the two groups from the same cage are brought together by removal of the partition, and the number of fights which occur in 10 minutes is noted.
as §2, §3

[11] = motility reduced by habituation to the enclosure; type: in vivo, male mice; conditions: i.p.
Description: as §1
After they have stayed in the actimeters for 18 hours, the mice (6 per dose, 12 control animals) receive CRL 40 875. They are immediately returned to their respective enclosures and, half an hour later, their motility is recorded for 30 minutes.
as §2, §3

[12] = motility reduced by hypoxic aggression; type: in vivo, male mice; conditions: i.p.
Description: as §1
Half an hour after they have received CRL 40 875, the mice (10 per dose, 20 control animals) are subjected to acute hypobaric anoxia [pressure reduction of 600 mm Hg (i.e. about 8×10^4 pascals) in 90 seconds; release of vacuum in 45 seconds] and are then placed in an actimeter, where their motility is recorded for 10 minutes.
as §2

[13] = asphyxiant anoxia (gallamine triiodoethylate); type: in vivo, male mice; conditions: i.p., mice
Description: as §1
Groups of 20 mice receive CRL 40 875 half an hour before the intraperitoneal administration of 32 mg/kg of gallamine triidoethylate (which is a reference curarizing agent).
as §2, §3

[14] = clinical trials, treatment of depressions; type: in vivo; conditions: man
Excerpt: In clinical trials, good results were obtained on man with CRL 40 875 (Example 1), CRL 40 912 (Example 2) and CRL 40 897 (Example 3) in the treatment of depressions.

[15] = neuropsychopharmacological study, overall findings; type: in vivo, mice, rats
Description: as §1, §2, §3, §4

[16] = traction test; type: in vivo, male mice; conditions: i.p., mice
Description: as §1, §5, §2

[17] = electric shock; type: in vivo, male mice; conditions: i.p., mice
Description: as §1, §5, §2

[18] = tested on: α-adrenergic; assay: α-adrenergic stimulation; conditions: in vivo

For Cc1ccc(C2CN(C)CCO2)cc1.Cl (stereo not drawn) [CRL 40 897, 2-p-tolyl-4-methylmorpholine hydrochloride], the signs of toxicity ([1]; 64 mg/kg i.p., mice) was “dyspnea, sedation”, the “trembling, animals affected” value ([1]; 64 mg/kg i.p., mice) was 1/3 and the mortality ([1]; 128 mg/kg i.p., groups of three mice) was “no mortality”. The signs of toxicity ([1]; 128 mg/kg i.p., groups of three mice, hydrochloride) was “dyspnea, trembling; also recorded: sedation”, the “convulsions, animals affected” value ([1]; 128 mg/kg i.p., mice) was 2/3 and the “convulsions, animals affected” value ([1]; 256 mg/kg i.p., mice) was 2/3. The “copious salivation, animals affected” value ([1]; 256 mg/kg i.p., mice) was 1 out of 3, the “death, animals affected” value ([1]; 256 mg/kg i.p., mice) was 3/3 and the signs of toxicity ([1]; 256 mg/kg i.p., mice) was “dyspnea”. For the same molecule, the time to death ([1]; 256 mg/kg i.p., mice) was 10 min, the duration of hypothermia ([2]; 4 mg/kg i.p.) was 0.5 h and the “hypothermia (temperature change)” value ([2]; 4 mg/kg i.p.) was -2.2 °C. For the same molecule, the duration of hypothermia ([2]; 16 mg/kg i.p.) was 0.5 h, the “hypothermia (temperature change)” value ([2]; 16 mg/kg i.p.) was -2.4 °C and the “depressed respiration, animals affected” value ([2]; 64 mg/kg i.p.) was 2/3. The “duration of depressed respiration” value ([2]; 64 mg/kg i.p.) was 3 h, the duration of sedation ([2]; 64 mg/kg i.p.) was 3 h and the “duration of significant salivation” value ([2]; 64 mg/kg i.p.) was 1 h. For the same molecule, the “hypothermia (temperature change)” value ([2]; 64 mg/kg i.p.) was -2.2 °C, the “sedation, animals affected” value ([2]; 64 mg/kg i.p.) was 3 out of 3 and the “significant salivation, animals affected” value ([2]; 64 mg/kg i.p.) was 3/3. The minimal effective dose ([3]; Mus musculus, ip, read-out: dose as from which hypothermic effect is present) was at least 4 mg/kg, the “effect on the temperature drop induced by apomorphine” value ([3]; high dose (64 mg/kg) i.p.) was “partially counteracts the temperature drop induced by apomorphine” and the “effect on righting behavior and stereotypies” value ([3]; i.p., apomorphine) was “without modifying the righting behavior and the stereotypies”. The “effect on stereotypies induced by apomorphine” value [4] was “does not modify the stereotypies induced by apomorphine”, the “effect on stereotypies induced by amphetamine” value [5] was “The increase observed in the other groups merely reflect this anomaly” and the “effect on the hypothermia and ptosis induced by reserpine” value [6] was “does not modify the hypothermia and ptosis induced by reserpine”. The minimal effective dose ([7]; Mus musculus, ip, read-out: dose as from which hypothermic effect is distinct) was at least 4 mg/kg, the “effect on the temperature drop induced by oxotremorine” value ([7]; high dose (64 mg/kg) i.p.) was “partially counteracts the temperature drop induced by oxotremorine” and the “effect on signs of peripheral cholinergic stimulation induced by oxotremorine” value ([7]; i.p.) was “leaves unchanged the signs of peripheral cholinergic stimulation induced by oxotremorine”. For the same molecule, the “effect on the trembling due to oxotremorine” value ([7]; i.p.) was “not influenced”, the “number of punished passes” value [8] was “does not cause an increase in the number of punished passes” and the minimal effective dose ([9]; Mus musculus, ip, read-out: dose as from which motility is reduced) was at least 4 mg/kg. The “effect on spontaneous motor activity” value ([9]; as from 4 mg/kg i.p.) was “depresses the spontaneous motor activity of mice”, the “effect on aggressiveness / number of fights” value [10] was “does not cause a distinct reduction in the number of fights” and the “resumption in the activity of mice accustomed to their enclosure” value [11] was “does not cause a resumption in the activity of mice accustomed to their enclosure”. For the same molecule, the “motor recovery in mice after reduced-pressure enclosure” value [12] was “does not cause any improvement in the motor recovery”, the “time taken for convulsions and death to occur following asphyxiant anoxia” value [13] was “delays the time taken for convulsions and death to occur” and the “results in the treatment of depressions” value [14] was “good results”. The “variation of sedative effects with dose” value ([15]; in vivo) was “increase continuously with the dose administered, up to a maximum value, and then decrease continuously and progressively as the dose increases”, the antidepressant effects ([15]; strong doses) was “antidepressants at strong doses” and the sedative effects ([15]; weak doses where stated) was “sedative effects (hypomotility, hypothermia, reduction of intergroup aggressiveness”. The major motor incapacity [16] was “does not cause major motor incapacity”, the “effect on electric shock” value [17] was “does not modify the convulsant and lethal effects of electric shock” and the α-adrenergic stimulant effect [18] was “stimulant effects, especially of the α-adrenergic type”.
